Test results reported in patent US20260355196A1, “INHIBITORS AND DEGRADERS OF PIP4K PROTEIN” (Larkspur Biosciences, Inc., priority 2023, published 2026).

target: T1, PIP4K2C (Homo sapiens, UniProt Q8TBX8); experiment: Enzyme Binding Assay (KINOMEscan): active site-directed competition binding to an immobilized ligand; design: purchased Eurofins DiscoverX, San Diego, CA 87-0007-1094; conditions: 11-point dose response, duplicate, top concentration 5 micromolar; read-out: Pip4k2c Kd: IC50
T1 sequence (Q8TBX8 1-421): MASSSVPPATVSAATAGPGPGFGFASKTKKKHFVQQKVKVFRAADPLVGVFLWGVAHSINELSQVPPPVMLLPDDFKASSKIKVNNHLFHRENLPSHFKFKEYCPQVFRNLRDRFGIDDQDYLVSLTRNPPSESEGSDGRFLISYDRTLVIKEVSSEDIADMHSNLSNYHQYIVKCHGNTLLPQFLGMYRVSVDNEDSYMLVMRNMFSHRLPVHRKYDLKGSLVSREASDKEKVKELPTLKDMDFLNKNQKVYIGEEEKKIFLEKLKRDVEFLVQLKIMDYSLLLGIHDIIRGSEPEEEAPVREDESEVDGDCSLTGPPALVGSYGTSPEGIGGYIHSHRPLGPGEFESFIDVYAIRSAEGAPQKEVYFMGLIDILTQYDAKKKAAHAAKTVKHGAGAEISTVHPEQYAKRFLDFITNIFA
Outline: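 Active site-directed competition binding against an immobilized ligand. 11-point dose-response in duplicate, top concentration 5 micromolar; IC50 from a Hill equation fitted by the Levenberg-Marquardt algorithm.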

| IC50 [nM] | SMILES |
| --- | --- |
| < 500 | Cc1ccc(=O)n(-c2cccc(-c3nc(N[C@H]4CCC[C@@H](C(N)=O)C4)ncc3F)c2)c1 [Compound 207, (1R,3S)-3-((5-fluoro-4-(3-(5-methyl-2-oxopyridin-1 (2H)-yl)phenyl)pyrimidin-2-yl)amino)cyclohexane-1-carboxamide] |
| < 500 | NC(=O)[C@@H]1CCC[C@H](Nc2ncc(F)c(-c3cccc(-n4cc(C(F)(F)F)ccc4=O)c3)n2)C1 [Compound 208, (1R,3S)-3-((5-fluoro-4-(3-(2-oxo-5-(trifluoromethyl)pyridin-1 (2H)-yl)phenyl)pyrimidin-2-yl)amino)cyclohexane-1-carboxamide] |
| < 500 | CC(=O)N1CCC(Nc2ncc(F)c(-c3cccc(N4CCC[C@@H](O)C4)c3)n2)CC1 [Compound 209, (R)-1-(4-((5-fluoro-4-(3-(3-hydroxypiperidin-1-yl)phenyl)pyrimidin-2-yl)amino)piperidin-1-yl)ethan-1-one] |
| < 500 | CC(=O)N1CCC(Nc2ncc(F)c(-c3cccc(N4CCC[C@H](O)C4)c3)n2)CC1 [Compound 210, (S)-1-(4-((5-fluoro-4-(3-(3-hydroxypiperidin-1-yl)phenyl)pyrimidin-2-yl)amino)piperidin-1-yl)ethan-1-one] |
| < 500 | CC(=O)N1CCC(Nc2ncc(F)c(-c3cccc(N4CCC(O)CC4)c3)n2)CC1 [Compound 211, 1-(4-((5-fluoro-4-(3-(4-hydroxypiperidin-1-yl)phenyl)pyrimidin-2-yl)amino)piperidin-1-yl)ethan-1-one] |
| < 500 | CC(=O)N1CCC(Nc2ncc(F)c(-c3cccc(C(=O)N4CC[C@H](O)C4)c3)n2)CC1 [Compound 212, (S)-1-(4-((5-fluoro-4-(3-(3-hydroxypyrrolidine-1-carbonyl)phenyl)pyrimidin-2-yl)amino)piperidin-1-yl)ethan-1-one] |
| < 500 | CC(=O)N1CCC(Nc2ncc(F)c(-c3cccc(C(=O)N4CC[C@@H](O)C4)c3)n2)CC1 [Compound 213, (R)-1-(4-((5-fluoro-4-(3-(3-hydroxypyrrolidine-1-carbonyl)phenyl)pyrimidin-2-yl)amino)piperidin-1-yl)ethan-1-one] |
| < 500 | CC(=O)N1CCC(Nc2ncc(F)c(-c3cccc(C(=O)N4CC(O)C4)c3)n2)CC1 [Compound 214, 1-(4-((5-fluoro-4-(3-(3-hydroxyazetidine-1-carbonyl)phenyl)pyrimidin-2-yl)amino)piperidin-1-yl)ethan-1-one] |
| 1000 to 5000 | CC(=O)N1CCC(Nc2ncc(F)c(N3CCC[C@H](C(=O)N4CC[C@H](O)C4)C3)n2)CC1 [Compound 215, 1-(4-((5-fluoro-4-((S)-3-((S)-3-hydroxypyrrolidine-1-carbonyl)piperidin-1-yl)pyrimidin-2-yl)amino)piperidin-1-yl)ethan-1-one] |
| 500 to 1000 | CC(=O)N1CCC(Nc2ncc(F)c(N3CCC[C@H](C(=O)N4CC[C@@H](O)C4)C3)n2)CC1 [Compound 216, 1-(4-((5-fluoro-4-((S)-3-((R)-3-hydroxypyrrolidine-1-carbonyl)piperidin-1-yl)pyrimidin-2-yl)amino)piperidin-1-yl)ethan-1-one] |
| < 500 | CC(=O)N1CCC(Nc2ncc(F)c(-c3cccc(C(=O)N4CCC(O)(CO)CC4)c3)n2)CC1 [Compound 217, 1-[4-[[5-fluoro-4-[3-[4-hydroxy-4-(hydroxymethyl)piperidine-1-carbonyl]phenyl]pyrimidin-2-yl]amino]-1-piperidyl]ethanone] |
| < 500 | CC(=O)N1CCC(Nc2ncc(F)c(-c3cccc(C(=O)N4CCC(O)(CN)CC4)c3)n2)CC1 [Compound 218, 1-(4-((4-(3-(4-(aminomethyl)-4-hydroxypiperidine-1-carbonyl)phenyl)-5-fluoropyrimidin-2-yl)amino)piperidin-1-yl)ethan-1-one] |
| < 500 | CC(=O)N1CCC(Nc2ncc(F)c(-n3cc(C4CC4)cn3)n2)CC1 [Compound 219, 1-(4-((4-(4-cyclopropyl-1H-pyrazol-1-yl)-5-fluoropyrimidin-2-yl)amino)piperidin-1-yl)ethan-1-one] |
| < 500 | CC(=O)N1CCC(Nc2ncc(F)c(-c3cccc(N4CCCOC4=O)c3)n2)CC1 [Compound 220, 3-[3-[2-[(1-acetyl-4-piperidyl)amino]-5-fluoro-pyrimidin-4-yl]phenyl]-1,3-oxazinan-2-one] |
| < 500 | CC(=O)N1CCC(Nc2ncc(F)c(-c3cccc(N4CCCCC4=O)c3)n2)CC1 [Compound 221, 1-(3-(2-((1-acetylpiperidin-4-yl)amino)-5-fluoropyrimidin-4-yl)phenyl)piperidin-2-one] |
| < 500 | CC(=O)N1CCC(Nc2ncc(F)c(-c3cccc(N4CCCC4=O)c3)n2)CC1 [Compound 222, 1-[3-[2-[(1-acetyl-4-piperidyl)amino]-5-fluoro-pyrimidin-4-yl]phenyl]pyrrolidin-2-one] |

| IC50 [nM] | SMILES |
| --- | --- |
| < 500 | NC(=O)[C@@H]1CC[C@H](Nc2ncc(F)c(-c3cccc(-c4ccc[nH]c4=O)c3)n2)C1 [Compound 223, (1R,3S)-3-((5-fluoro-4-(3-(2-oxo-1,2-dihydropyridin-3-yl)phenyl)pyrimidin-2-yl)amino)cyclopentane-1-carboxamide] |
| 500 to 1000 | CC(=O)N1CCC(Nc2ncc(F)c(N3CCCC(c4cc[nH]c(=O)c4)C3)n2)CC1 (stereo not shown) [Compound 224, 4-(1-(2-((1-acetylpiperidin-4-yl)amino)-5-fluoropyrimidin-4-yl)piperidin-3-yl)pyridin-2(1H)-one] |
| < 500 | CC(=O)N[C@H]1CC[C@H](Nc2ncc(F)c(-c3cccc(N4CCCOC4=O)c3)n2)CC1 [Compound 225, trans-N-(4-((5-fluoro-4-(3-(2-oxo-1,3-oxazinan-3-yl)phenyl)pyrimidin-2-yl)amino)cyclohexyl)acetamide] |
| < 500 | CC(=O)N1CCC(Nc2ncc(F)c(-c3cccc(N4CCOC4=O)c3)n2)CC1 [Compound 226, 3-(3-(2-((1-acetylpiperidin-4-yl)amino)-5-fluoropyrimidin-4-yl)phenyl)oxazolidin-2-one] |
| < 500 | CC(=O)N1CCC(Nc2ncc(F)c(-c3cccc(N4CCC(O)C4=O)c3)n2)CC1 (stereo not shown) [Compound 228, 1-(3-(2-((1-acetylpiperidin-4-yl)amino)-5-fluoropyrimidin-4-yl)phenyl)-3-hydroxypyrrolidin-2-one] |
| < 500 | NC(=O)[C@H]1CC[C@H](Nc2ncc(F)c(-c3cccc(-c4ccc(=O)[nH]c4)c3)n2)CC1 [Compound 229, trans-4-((5-fluoro-4-(3-(6-oxo-1,6-dihydropyridin-3-yl)phenyl)pyrimidin-2-yl)amino)cyclohexane-1-carboxamide] |
| < 500 | CC(=O)N1CCC(Nc2ncc(F)c(-c3cccc(N4C[C@@H](O)CC4=O)c3)n2)CC1 [Compound 230, (4S)-1-[3-[2-[(1-acetyl-4-piperidyl)amino]-5-fluoro-pyrimidin-4-yl]phenyl]-4-hydroxy-pyrrolidin-2-one] |
| < 500 | CC(=O)N[C@H]1CC[C@H](Nc2ncc(F)c(-c3ccnc(C4(O)CCC4)c3)n2)CC1 [Compound 231, trans-N-(4-((5-fluoro-4-(2-(1-hydroxycyclobutyl)pyridin-4-yl)pyrimidin-2-yl)amino)cyclohexyl)acetamide] |
| < 500 | CC(=O)N1CCC(Nc2ncc(F)c(-c3ccnc(C4(O)CCC4)c3)n2)CC1 [Compound 232, 1-(4-((5-fluoro-4-(2-(1-hydroxycyclobutyl)pyridin-4-yl)pyrimidin-2-yl)amino)piperidin-1-yl)ethan-1-one] |
| < 500 | CC(=O)N[C@H]1CC[C@H](Nc2ncc(F)c(-c3cccc(N4CCOC4=O)c3)n2)CC1 [Compound 233, trans-N-(4-((5-fluoro-4-(3-(2-oxooxazolidin-3-yl)phenyl)pyrimidin-2-yl)amino)cyclohexyl)acetamide] |
| < 500 | CC(=O)N[C@H]1CC[C@H](Nc2ncc(F)c(-c3cccc(-n4cc(C(F)(F)F)ccc4=O)c3)n2)CC1 [Compound 234, trans-N-(4-((5-fluoro-4-(3-(2-oxo-5-(trifluoromethyl)pyridin-1 (2H)-yl)phenyl)pyrimidin-2-yl)amino)cyclohexyl)acetamide] |
| < 500 | CC(=O)N[C@H]1CC[C@H](Nc2ncc(F)c(-c3cccc(-n4cc(C)ccc4=O)c3)n2)CC1 [Compound 235, trans-N-(4-((5-fluoro-4-(3-(5-methyl-2-oxopyridin-1 (2H)-yl)phenyl)pyrimidin-2-yl)amino)cyclohexyl)acetamide] |
| < 500 | NC(=O)[C@H]1CC[C@H](Nc2ncc(F)c(-c3cccc(N4CCCOC4=O)c3)n2)CC1 [Compound 236, trans-4-((5-fluoro-4-(3-(2-oxo-1,3-oxazinan-3-yl)phenyl)pyrimidin-2-yl)amino)cyclohexane-1-carboxamide] |
| < 500 | CC(=O)N1CCC(Nc2ncc(F)c(-c3cccc(N4C[C@H](O)CC4=O)c3)n2)CC1 [Compound 237, (4R)-1-[3-[2-[(1-acetyl-4-piperidyl)amino]-5-fluoro-pyrimidin-4-yl]phenyl]-4-hydroxy-pyrrolidin-2-one] |
| < 500 | CC(=O)N[C@H]1CC[C@H](Nc2ncc(F)c(-c3cccc(-n4ccccc4=O)c3)n2)CC1 [Compound 238, trans-N-[4-[[5-fluoro-4-[3-(2-oxo-1-pyridyl)phenyl]pyrimidin-2-yl]amino]cyclohexyl]acetamide] |
